Data as given in US20090081320A1, “Method for Weight Reduction” (priority 2005, published 2009).

Experiment: General observations in test persons using the diet with or without composition
Type: in vivo, human
Settings: diet not adhered to, additional intake
From the text: It was observed that the application of the diet according to the invention by itself leads to a weight reduction. In all the test persons, however, side effects such as weakness and/or indisposition as well as gluttonous attacks were reported. […] This is due to the fact that with the intake of the composition that contains one or several active agents which promote fat burning, utilizable energy is made available and the fat burning is accelerated. A test person reported at the start of the reduction cycle on changing over to the diet in accordance with the invention combined with the simultaneous intake of a composition that contains one or several active agents which promote fat burning, that after 2-3 days, the feeling of indisposition or gluttonousness were no longer to be felt and the diet could be well adhered to.
Therefore, the composition contains, in a preferred embodiment in addition to one or several active agents that promote fat burning, one or several active agents that reduce the breakdown of fat to fatty acids in the intestines. Active agents that reduce the breakdown of fat to fatty acids in the intestines are herein active agents that inhibit enzymes which catalyse the breakdown of the fats (tricylglycerines) to fatty acids and glycerines. […] For a body weight deviating from this value, the quantity is to be appropriately adjusted.

In the case of C[N+](C)(C)C[C@H](O)CC(=O)[O-] [L-canitine, (3R)-hydroxy-4-(trimethylammonium)-butyrat], the weight loss is reported as “no weight loss”.
